Reference: US20240150377A1, “MODULATORS OF CYSTIC FIBROSIS TRANSMEMBRANE CONDUCTANCE REGULATOR” (VERTEX PHARMACEUTICALS INCORPORATED, priority 2020, published 2024)
Read-outs that look alike come from different tables or passages of the source. Blank lines part the entries; values can stand above or below the molecule they belong to.

Biological target: T1, CFTR (Homo sapiens, UniProt P13569, DEL508-508)
T1 construct: endogenous in cells; host or cells: primary human bronchial epithelial cells from CF subjects (F508del/MF-HBE), differentiated at air-liquid interface
Assay: HBE assay: Ussing chamber assay of CFTR-mediated short-circuit currents
Format: cell-based
Procedure, shortened: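 CFTR-mediated Isc (μA/cm²) equals the peak response to apical 20 μM forskolin minus the residual after a 20 μM each BPO/GlyH-101/CFTR inhibitor 172 cocktail, recorded in Ussing chambers at Vhold 0 mV, 37 °C, pH 7.4, with 30 μM apical amiloride. Cells were F508del/MF HBE cultures preincubated 18-24 h with corrector (concentration range or 10 μM) plus 1 μM ivacaftor in 20% human serum.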

[1] = Table 11; at 10 μM; read-out: HBE Activity at 10 μM (%)
[2] = Table 11; read-out: HBE Max Activity (%)
[3] = Table 12; at 10 μM; read-out: HBE Activity at 10 μM (%)
[4] = Table 10; at 10 μM; read-out: HBE activity at 10 (μM) (%)
[5] = Table 10; read-out: HBE Max activity (%)
[6] = Table 13; read-out: HBE Max Activity (%)
[7] = Table 13; at 10 μM; read-out: HBE Activity at 10 μM (%)
[8] = Table 12; read-out: HBE Max Activity (%)
[9] = HBE assay; read-out: HBE Max activity (%)

T1 sequence (P13569 with tags, fused parts or gaps DEL508-508): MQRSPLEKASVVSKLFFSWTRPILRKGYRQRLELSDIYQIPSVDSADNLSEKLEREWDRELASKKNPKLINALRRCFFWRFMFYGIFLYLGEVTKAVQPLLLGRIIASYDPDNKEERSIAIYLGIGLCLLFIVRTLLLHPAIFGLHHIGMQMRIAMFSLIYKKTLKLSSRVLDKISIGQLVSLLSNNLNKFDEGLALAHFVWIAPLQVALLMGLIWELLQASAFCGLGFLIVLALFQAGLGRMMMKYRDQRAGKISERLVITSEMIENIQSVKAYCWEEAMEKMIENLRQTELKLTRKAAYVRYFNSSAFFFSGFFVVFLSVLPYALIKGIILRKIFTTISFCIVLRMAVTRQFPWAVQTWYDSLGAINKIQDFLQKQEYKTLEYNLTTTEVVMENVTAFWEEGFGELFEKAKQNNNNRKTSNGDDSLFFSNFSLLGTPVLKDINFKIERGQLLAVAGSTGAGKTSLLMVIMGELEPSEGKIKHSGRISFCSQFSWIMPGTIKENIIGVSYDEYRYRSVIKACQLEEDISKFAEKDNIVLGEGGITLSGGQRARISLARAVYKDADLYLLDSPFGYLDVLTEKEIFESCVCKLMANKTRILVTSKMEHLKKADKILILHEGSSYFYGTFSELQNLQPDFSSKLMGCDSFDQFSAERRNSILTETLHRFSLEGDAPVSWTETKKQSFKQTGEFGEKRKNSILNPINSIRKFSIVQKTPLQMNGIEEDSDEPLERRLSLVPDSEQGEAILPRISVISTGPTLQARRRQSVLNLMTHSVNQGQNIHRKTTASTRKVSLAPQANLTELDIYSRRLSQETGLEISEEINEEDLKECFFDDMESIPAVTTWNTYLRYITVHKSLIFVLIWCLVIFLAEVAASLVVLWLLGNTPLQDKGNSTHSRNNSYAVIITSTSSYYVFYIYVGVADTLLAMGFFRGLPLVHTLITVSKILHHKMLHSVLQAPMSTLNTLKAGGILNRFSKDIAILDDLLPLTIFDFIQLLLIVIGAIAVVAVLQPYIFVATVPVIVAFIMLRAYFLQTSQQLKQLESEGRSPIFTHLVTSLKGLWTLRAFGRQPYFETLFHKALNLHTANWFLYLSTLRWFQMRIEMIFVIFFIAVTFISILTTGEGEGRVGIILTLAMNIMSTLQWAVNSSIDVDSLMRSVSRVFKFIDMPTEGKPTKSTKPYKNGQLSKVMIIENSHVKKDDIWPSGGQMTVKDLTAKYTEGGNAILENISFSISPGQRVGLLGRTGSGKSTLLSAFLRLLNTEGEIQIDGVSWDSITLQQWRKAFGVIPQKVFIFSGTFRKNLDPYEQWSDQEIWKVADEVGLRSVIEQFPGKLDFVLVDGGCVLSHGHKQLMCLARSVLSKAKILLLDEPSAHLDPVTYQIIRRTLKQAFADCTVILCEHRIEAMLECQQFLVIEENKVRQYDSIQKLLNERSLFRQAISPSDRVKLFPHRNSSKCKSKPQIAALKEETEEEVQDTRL

activation at 10 µM [1]: > 60% | EC50 (Table 11; read-out: HBE EC50): < 1000 nM | Emax [2]: > 60%
Structure (SMILES): C=C(C)c1cccc(CN2C(=O)c3cccc(c3)S(=O)(=O)Nc3nc(cc(-c4c(C)cccc4C)n3)OC[C@H]2CC(C)(C)C)n1 [Compound 735]

activation at 10 µM [3]: > 600%
Structure (SMILES): Cc1cccc(C)c1-c1cc2nc(n1)NS(=O)(=O)c1cccc(c1)C(=O)N(Cc1ncc(C3CCOCC3)cc1F)[C@H](CC(C)(C)C)CO2 [Compound 521]

activation at 10 µM [4]: > 60% | EC50 (Table 10; read-out: HBE EC50): < 1000 nM | Emax [5]: > 60%
Structure (SMILES): Cc1cccc(C)c1-c1cc2nc(n1)NS(=O)(=O)c1cccc(c1)C(=O)N(Cc1ncccc1-c1cn[nH]c1)[C@H](CC(C)(C)C)CO2 [Compound 53, (11R)-6-(2,6-Dimethylphenyl)-11-(2,2-dimethylpropyl)-2,2-dioxo-12-[[3-(1H-pyrazol-4-yl)-2-pyridyl]methyl]-9-oxa-2λ^6-thia-3,5,12,19-tetrazatricyclo[12.3.1.14,8]nonadeca-1(18),4(19),5,7,14,16-hexaen-13-one]

EC50 (Table 13; read-out: HBE EC50): < 1000 nM | Emax [6]: > 60%
Structure (SMILES): Cc1cccc(C)c1-c1cc2nc(n1)NS(=O)(=O)c1cccc(c1)C(=O)N(Cc1ncc(OC(C)C)cn1)[C@H](CC1(C(F)(F)F)CC1)CO2 [Compound 1120]

activation at 10 µM [4]: > 60%
Structure (SMILES): Cc1cccc(C)c1-c1cc2nc(n1)NS(=O)(=O)c1cccc(c1)C1Oc3ccc4ncccc4c3CN1[C@H](CC(C)(C)C)CO2 (stereo partly shown) [Compound 750]

EC50 (Table 13; read-out: HBE EC50): < 1000 nM | Emax [6]: > 60%
Structure (SMILES): Cc1cccc(C)c1-c1cc2nc(n1)NS(=O)(=O)c1cccc(c1)C(=O)N(Cc1ccc(C3CC4(COC4)C3)cn1)[C@H](CC(C)(C)C)CO2 [Compound 164]

EC50 (Table 11; read-out: HBE EC50): < 1000 nM | Emax [2]: > 60%
Structure (SMILES): Cc1cccc(C)c1-c1cc2nc(n1)NS(=O)(=O)c1cccc(c1)C(=O)N(Cc1ncc(CC(C)C)cn1)[C@H](CC(C)(C)C)CO2 [Compound 120, (11R)-6-(2,6-Dimethylphenyl)-11-(2,2-dimethylpropyl)-12-[(5-isobutylpyrimidin-2-yl)methyl]-2,2-dioxo-9-oxa-2λ^6-thia-3,5,12,19-tetrazatricyclo[12.3.1.14,8]nonadeca-1(18),4(19),5,7,14,16-hexaen-13-one]

activation at 10 µM [7]: > 600%
Structure (SMILES): Cc1cccc(C)c1-c1cc2nc(n1)NS(=O)(=O)c1cccc(c1)C(=O)N(CC(=O)N1CCC(C)(C)CC1)[C@H](CC(C)(C)C)CO2 [Compound 208]

activation at 10 µM [3]: > 600%
Structure (SMILES): Cc1cccc(C)c1-c1cc2nc(n1)NS(=O)(=O)c1cccc(c1)C(=O)N(Cc1ncc(C(C)(C)C)s1)[C@H](CC(C)(C)C)CO2 [Compound 174]

EC50 (Table 12; read-out: HBE EC50): < 1000 nM | Emax [8]: > 60%
Structure (SMILES): COCC(C)N(C)c1cncc(CN2C(=O)c3cccc(c3)S(=O)(=O)Nc3nc(cc(-c4c(C)cccc4C)n3)OC[C@H]2CC(C)(C)C)n1 (stereo partly shown) [Compound 444]

EC50 (Table 10; read-out: HBE EC50): < 1000 nM | Emax [5]: > 60%
Structure (SMILES): Cc1cccc(C)c1-c1cc2nc(n1)NS(=O)(=O)c1cccc(c1)C(=O)N(CC1CCC(N3C[C@@H](C)O[C@@H](C)C3)CC1)[C@H](CC(C)(C)C)CO2 (stereo partly shown) [Compound 913]

activation at 10 µM [3]: > 600%
Structure (SMILES): Cc1cccc(C)c1-c1cc(O)nc(NS(=O)(=O)c2cccc(C(=O)N(Cc3cccc(N4CCC[C@]4(C)C(=O)O)n3)[C@@H](C)CC(C)(C)C)c2)n1 [Compound 277]

EC50 (Table 12; read-out: HBE EC50): < 1000 nM | Emax [8]: > 60%
Structure (SMILES): Cc1cccc(C)c1-c1cc2nc(n1)NS(=O)(=O)c1cccc(c1)C(=O)N(Cc1cnc(C3CCOCC3)cn1)[C@H](CC(C)C)CO2 [Compound 240]

activation at 10 µM [1]: > 60%
Structure (SMILES): Cc1cccc(C)c1-c1cc2nc(n1)NS(=O)(=O)c1cccc(c1)C(=O)N(Cc1ccc(OCC(C)C)cn1)[C@H](CC(C)(C)C)CO2 [Compound 747]

EC50 (Table 10; read-out: HBE EC50): < 1000 nM | Emax [5]: > 60%
Structure (SMILES): COc1ccc(CN2C(=O)c3cccc(c3)S(=O)(=O)Nc3nc(cc(-c4c(C)cccc4C)n3)OC[C@H]2CC(C)(C)C)nc1 [Compound 501]

Structure (SMILES): Cc1cccc(C)c1-c1cc2nc(n1)NS(=O)(=O)c1cccc(c1)C(=O)N(CC1CC(N3C[C@@H](C)O[C@@H](C)C3)C1)[C@H](CC(C)(C)C)CO2 (single isomer, unassigned) [Compound 63]
EC50 (read-out: HBE EC50; Table 10): < 1000 nM

EC50 (HBE assay; read-out: HBE EC50): < 1000 nM | Emax [9]: > 60%
Structure (SMILES): CC[C@H](C)[C@@H]1COc2cc(-c3c(C)cccc3C)nc(n2)NS(=O)(=O)c2cccc(c2)C(=O)N1Cc1ncc(OC(C)C)cn1 [Compound 1471]

Emax [5]: > 60%
Structure (SMILES): Cc1cccc(C)c1-c1cc2nc(n1)NS(=O)(=O)c1cccc(c1)C(=O)N(Cc1ncc(N(C)C)cn1)[C@H](CC(C)(C)C)CO2 [Compound 1072]

EC50 (Table 10; read-out: HBE EC50): < 1000 nM | Emax [5]: > 60%
Structure (SMILES): Cc1cccc(C)c1-c1cc2nc(n1)NS(=O)(=O)c1cccc(c1)C(=O)N(Cc1ccccc1-c1c(C)n[nH]c1C)[C@H](CC(C)(C)C)CO2 [Compound 306]

EC50 (Table 10; read-out: HBE EC50): < 1000 nM | Emax [5]: > 60%
Structure (SMILES): COc1ccc(CN2C(=O)c3cccc(c3)S(=O)(=O)Nc3nc(cc(-c4c(C)cccc4C)n3)OC[C@H]2CC(C)(C)C)cc1 [Compound 770]

EC50 (HBE assay; read-out: HBE EC50): < 1000 nM | Emax [9]: > 60%
Structure (SMILES): Cc1cccc(C)c1-c1cc2nc(n1)NS(=O)(=O)c1cccc(c1)C(=O)N(Cc1ncc(OC3CC(C)(C)C3)cn1)[C@H](CC(C)(C)C)CO2 [Compound 1422]

activation at 10 µM [3]: > 600%
Structure (SMILES): Cc1cccc(C)c1-c1cc2nc(n1)NS(=O)(=O)c1cccc(c1)C(=O)N(Cc1nccc(N(C)C(C)C)n1)[C@H](CC(C)C)CO2 [Compound 552]

EC50 (HBE assay; read-out: HBE EC50): < 1000 nM | Emax [9]: > 60%
Structure (SMILES): COCCN(CC(C)(C)C)c1cncc(CN2C(=O)c3cccc(c3)S(=O)(=O)Nc3nc(cc(-c4c(C)cccc4C)n3)OC[C@H]2CC(C)(C)C)n1 [Compound 1367]

EC50 (Table 11; read-out: HBE EC50): < 1000 nM | Emax [2]: > 60%
Structure (SMILES): Cc1cccc(C)c1-c1cc2nc(n1)NS(=O)(=O)c1cccc(c1)C(=O)N(CC1CCOCC1)[C@H](CC(C)(C)C)CO2 [Compound 820]

EC50 (Table 11; read-out: HBE EC50): < 1000 nM | Emax [2]: > 60%
Structure (SMILES): Cc1cccc(C)c1-c1cc2nc(n1)NS(=O)(=O)c1cccc(c1)C(=O)N(Cc1cccc(C3CCCCO3)n1)[C@H](CC(C)(C)C)CO2 (stereo partly shown) [Compound 603]

activation at 10 µM (HBE assay; 10 μM; read-out: HBE Activity at 10 μM (%)): > 60%
Structure (SMILES): Cc1cccc(C)c1-c1cc2nc(n1)NS(=O)(=O)c1cccc(c1)C(=O)N(Cc1ccc3c(C4CC4)cn(C)c3n1)[C@H](CC(C)(C)C)CO2 [Compound 1303, (11R)-12-[(3-Cyclopropyl-1-methyl-pyrrolo[2,3-b]pyridin-6-yl)methyl]-6-(2,6-dimethylphenyl)-11-(2,2-dimethylpropyl)-2,2-dioxo-9-oxa-2λ^6-thia-3,5,12,19-tetrazatricyclo[12.3.1.14,8]nonadeca-1(18),4(19),5,7,14,16-hexaen-13-one]

EC50 (Table 12; read-out: HBE EC50): < 1000 nM | Emax [8]: > 60%
Structure (SMILES): Cc1cccc(C)c1-c1cc2nc(n1)NS(=O)(=O)c1cccc(c1)C(=O)N(Cc1ncc(N3CC4CC3CO4)cn1)[C@H](CC(C)(C)C)CO2 (stereo partly shown) [Compound 545]

activation at 10 µM [7]: > 600%
Structure (SMILES): Cc1cccc(C)c1-c1cc2nc(n1)NS(=O)(=O)c1cccc(c1)C(=O)N(CC1(N(C)C)CC3(CCC3)C1)[C@H](CC(C)(C)C)CO2 [Compound 997]

EC50 (Table 13; read-out: HBE EC50): < 1000 nM | Emax [6]: > 60%
Structure (SMILES): COCCCN(c1cccc(CN2C(=O)c3cccc(c3)S(=O)(=O)Nc3nc(cc(-c4c(C)cccc4C)n3)OC[C@H]2CC(C)(C)C)n1)C(C)C [Compound 1136]

EC50 (Table 12; read-out: HBE EC50): < 1000 nM | Emax [8]: > 60%
Structure (SMILES): Cc1cccc(C)c1-c1cc2nc(n1)NS(=O)(=O)c1cccc(c1)C(=O)N(Cc1cccc(C3CCCCO3)n1)[C@H](CC(C)(C)C)CO2 (stereo partly shown) [Compound 604]

activation at 10 µM [3]: > 600%
Structure (SMILES): Cc1cccc(C)c1-c1cc2nc(n1)NS(=O)(=O)c1cccc(c1)C(=O)N(Cc1ncc(N(C)C)c(C)n1)[C@H](CC(C)(C)C)CO2 [Compound 1008]
